Results as given in patent EP0497988A1, “ANTIVIRAL AGENT” (DAINIPPON INK AND CHEMICALS, INC., priority 1990, dated 1992).
≈ marks a conversion by molar mass, not a printed value.

Key:
HTLV-IIIB = assay: Anti-HIV activity by MTT (tetrazolium) method in MT-4 cells; assay type: cell-based; conditions: for EC₅₀: MT-4 cells infected with HTLV-IIIB, MOI 0.01, 5 days, MTT
Protocol: (§1) Test Method: MMT (the tetrazolium assay) method Cell: MT-4 Cell Virus: HTLV-IIIB (Infection : 3 x 10⁵ plaque forming units (PFU)/ml) MT-4 cells were suspended in a culture medium at 2 x 10⁵ cells/ml and infected with HIV-IIIB at a multiplicity of infection of 0.01. Immediately after infection, 100µl of cell suspension was placed into microtiter tray wells containing various concentrations of the test samples. At the same time, the mock-infected cells were also cultured together with the samples in order to assess the cell toxicity of the test samples to the MT-4 cell. They were cultured in a CO₂-gas incubator at 37°C for 5 days, and the number of viable cells were determined by the MTT method. Antiviral activity is expressed by EC₅₀ (50% effective concentration), the concentration at which the agent protects 50% of the cells from injury by HIV infection, and cell toxicity by CC₅₀ (50% cell toxicity concentration), the concentration at which 50% of the cells are injured by the agent. Selectivity is measured by a selectivity index (S.I), which is expressed by CC₅₀/EC₅₀ (R. Pauwels, et al., J. of […], vol. 20, 1988, pp. 309-321).

[1] = Cell toxicity to mock-infected MT-4 cells by MTT method; assay type: cell-based; conditions: human, 5 days, read-out: CC₅₀
Protocol: as §1

MT-4 Cell [2] = assay: as above; assay type: cell-based; conditions: 5 days
Protocol: as §1

MT-4 Cell [3] = assay: Viable count of mock-infected MT-4 cells cultured with sample (trypan blue exclusion); assay type: cell-based
Protocol: Samples: MPS-1, MPS-2, MPS-3 and LPS-1 Cell and Virus: MT-4 Cell, MOLT-4 Cell HTLV as one HIV strain was prepared from the supernatant of the HIV-infected cells. The titer for the virus preparation (6 x 10⁵ plaque formation units/ml) was measured by the plaque assay method using MT-4 cells.
The MT-4 cells were mixed with HIV at 0.002MOI (multiplicity of infection), to be cultured at 37°C for 60 min. The virus-absorbing cells were washed and adjusted at 3 x 10⁵ cells/ml (the culture medium was RPMI1640 which supplemented with 10% heat-inactivated fetal calf serum and antibiotic). The suspension of the infected cells was cultured in the presence of the sample, and then cultured in a CO₂-containing atmosphere for 3 days. Then, the medium was replaced with the one containing the same quantity of the sample. Percentages of the viable cells and virus antigen positive cells were counted by the trypan blue exclusion method and indirect fluorescent antibody (IF) methods, respectively.
The test results are given in Tables 1 through 8, where the units for concentration, mock-infected cell count, infected cell count, percentage of HIV-antigen positive cell are µg/ml, x 10⁴cells/ml, and x 10⁴cells/ml, %, respectively.

HIV [4] = assay: HIV-induced cytopathic effect: viable count of HIV-infected MT-4 cells (trypan blue exclusion)
Protocol: (§2) The anti-HIV activity of each sample was evaluated by the HIV-induced cytopathic effect (CPE) and the expression of the virus-specific antigen.

HIV [5] = assay: Expression of virus-specific antigen in HIV-infected MT-4 cells (indirect fluorescent antibody method)
Protocol: as §2

[6] = 3rd day, concentration 25 µg/ml
[7] = 3rd day, concentration 50 µg/ml
[8] = 3rd day, concentration 100 µg/ml
[9] = 3rd day, concentration 200 µg/ml
[10] = 3rd day, concentration 500 µg/ml
[11] = 6th day, concentration 25 µg/ml
[12] = 6th day, concentration 50 µg/ml
[13] = 6th day, concentration 100 µg/ml
[14] = 6th day, concentration 200 µg/ml

Molecule `Cc1cn([C@H]2C[C@H](N=[N+]=[N-])[C@@H](CO)O2)c(=O)[nH]c1=O` [AZT, 3'-azide-3'-deoxythymidine, reference compound] has an EC50 (HTLV-IIIB; Human immunodeficiency virus 1, IIIB, MT4, 120 h, read-out: EC₅₀) of 0.0019 µg/mL (≈ 0.00711 µM) and a CC50 at 120 h [1] of 3.06 µg/mL (≈ 11.5 µM).

“sodium salt of dodecyl 4-galactosyl β-D-lactoside sulfate [GTS-1]” gave an EC₅₀ (HTLV-IIIB) of 9.8 µg/mL.

Molecule “sodium salt of dodecyl 4-galactosyl-β-D-lactoside sulfate [GTS-2]” has an EC₅₀ (HTLV-IIIB) of 8.6 µg/mL and a CC₅₀ (MT-4 Cell [2]) of 858 µg/mL.

“sodium salt of dodecyl maltohexaoside sulfate [MHS-2]” showed an EC₅₀ (HTLV-IIIB) of 3.91 µg/mL and a CC₅₀ (MT-4 Cell [2]) greater than 1000 µg/mL.

Work on “sodium salt of dodecyl β-D-laminaripentaoside sulfate [LPS-1-1]” yielded an EC₅₀ (HTLV-IIIB) of 0.68 µg/mL and a CC₅₀ (MT-4 Cell [2]) greater than 1000 µg/mL.

For “sodium salt of n-decyl β-laminaripentaoside sulfate [LPS-3]”, the EC₅₀ (HTLV-IIIB) was “= 67 µg/ml”.

For “sodium salt of n-hexadecyl β-laminaripentaoside sulfate [LPS-2]”, the EC₅₀ (HTLV-IIIB) was “= 17 µg/ml”.

In the case of “sodium salt of octadecyl maltoheptaoside sulfate [MHS-1]”, the EC₅₀ (HTLV-IIIB) is reported as 2) > 40 µg/ml and the CC₅₀ (MT-4 Cell [2]) is reported as 355 µg/mL.

“sodium salt of octadecyl maltohexaoside sulfate [MHS-3]” showed an EC₅₀ (HTLV-IIIB) of 10.36 µg/mL and a CC₅₀ (MT-4 Cell [2]) of 580 µg/mL.

With “sodium salt of octadecyl maltotrioside sulfate [MTS-1]” the EC₅₀ (HTLV-IIIB) was 1) > 40 µg/ml and the CC₅₀ (MT-4 Cell [2]) was 329 µg/mL.

“sodium salt of sulfated dodecyl β-D-laminarpentaoside [LPS-1]” gave a Mock-infected cell count (MT-4 Cell [3]; [6]) of 151 x 10⁴cells/ml, a Mock-infected cell count (MT-4 Cell [3]; [7]) of 149 x 10⁴cells/ml and a Mock-infected cell count (MT-4 Cell [3]; [8]) of 136 x 10⁴cells/ml. For the same molecule, the Mock-infected cell count (MT-4 Cell [3]; [9]) was 120 x 10⁴cells/ml, the Mock-infected cell count (MT-4 Cell [3]; [10]) was 79 x 10⁴cells/ml and the Mock-infected cell count (MT-4 Cell [3]; [11]) was 145 x 10⁴cells/ml. It also gave a Mock-infected cell count (MT-4 Cell [3]; [12]) of 149 x 10⁴cells/ml, a Mock-infected cell count (MT-4 Cell [3]; [13]) of 140 x 10⁴cells/ml and a Mock-infected cell count (MT-4 Cell [3]; [14]) of 124 x 10⁴cells/ml. For the same molecule, the HIV-infected cell count (HIV [4]; [6]) was 133 x 10⁴cells/ml, the HIV-infected cell count (HIV [4]; [7]) was 128 x 10⁴cells/ml and the HIV-infected cell count (HIV [4]; [8]) was 130 x 10⁴cells/ml. It also gave an HIV-infected cell count (HIV [4]; [11]) of 88 x 10⁴cells/ml, an HIV-infected cell count (HIV [4]; [12]) of 150 x 10⁴cells/ml and an HIV-infected cell count (HIV [4]; [13]) of 107 x 10⁴cells/ml. For the same molecule, the “Percentage of HIV-antigen positive cell” value (HIV [5]; [6]) was 3%, the “Percentage of HIV-antigen positive cell” value (HIV [5]; [7]) was less than 1% and the “Percentage of HIV-antigen positive cell” value (HIV [5]; [8]) was less than 1%. For the same molecule, the “Percentage of HIV-antigen positive cell” value (HIV [5]; [9]) was less than 1%, the “Percentage of HIV-antigen positive cell” value (HIV [5]; [10]) was less than 1% and the “Percentage of HIV-antigen positive cell” value (HIV [5]; [11]) was 20%. The “Percentage of HIV-antigen positive cell” value (HIV [5]; [12]) was less than 1%, the “Percentage of HIV-antigen positive cell” value (HIV [5]; [13]) was 0% and the “Percentage of HIV-antigen positive cell” value (HIV [5]; [14]) was 0%.
